Experimental data from paper PMC5884652, “New antimicrobial peptide kills drug-resistant pathogens without detectable resistance” (Oncotarget, 2018).
Where two headings read alike, the source gives them in different places. Ends that are not written are not given here.

Tests used:
[1] = test system: E. coli ATCC 25922; type: cell-based, Escherichia coli
Description: (§1) The method for peptide synthesis has been described in detail previously. E. coli ATCC 25922 (LB media), P. aeruginosa ATCC 15692 (NB+0.5% NaCl media), Listeria monocytogenes ATCC 3710 (LB media), Staphylococcus epidermidis ATCC 12228 (LB media), and S. aureus ATCC 29213 (TSB media) were obtained from the American Type Culture Collection (Manassas, VA, USA). Bacillus subtilis KCTC 1998 (LB media), Salmonella typhimurium KCTC 1926 (NB media), and Proteus vulgaris KCTC 2433 (NB media) were obtained from the Korean Collection for Type Cultures (Jeollabuk-do, Korea). E. coli CCARM 1238 was received from the Culture Collection of Antibiotic Resistant Microbes at Seoul Women’s University, Korea. Drug-resistant P. aeruginosa 3543, 3904, 3547, and 4007 and S. aureus 3126, 0027, 5157, 1635, 4761, 5159, 3359, 2122, 1630, 1870, 3511, 5156, and 3518 were resistant strains isolated from patients with otitis media in a Chonnam National University’s hospital.
(§2) The antibacterial activities of AMPs (melittin, clavaspirin, and its analogs) and conventional antibiotic drugs (erythromycin, gentamicin, ampicillin, and piperacidin) were determined using microdilution assays. Bacterial cells were cultured at 37° C in appropriate culture media at pH 5.5 or pH 7.4 until collection during the mid-log phase and suspended in 10 mM sodium phosphate buffer (pH 5.5 or pH 7.4) supplemented with 10% culture medium. Thereafter, 2× serial dilutions of each peptide (0.25–128 μM) or antibiotic (0.25–256 μM) were added to sterile 96-well plates, and aliquots of cell suspension (5 × 10^5 colony forming units (cfu)/mL) were seeded into each well. The samples were then incubated at 37° C for 24 h. At the end of the incubation, the minimum inhibitory concentrations (MICs) of the peptides were determined using a VERSA Max microplate reader (Molecular Devices Co., Sunnyvale, CA, USA) at a wavelength of 600 nm. […] MIC values were calculated as the mean of 3 independent experiments conducted in triplicate.

[2] = test system: P. aeruginosa ATCC 15692; type: cell-based, Pseudomonas aeruginosa
Description: as §1, with “E. coli ATCC 25922 (LB media), P. aeruginosa ATCC 15692 (NB+0.5% NaCl media), Listeria monocytogenes ATCC 3710 (LB media), Staphylococcus epidermidis ATCC 12228 (LB media), and S. aureus ATCC 29213 (TSB media) were obtained from the American Type Culture Collection (Manassas, VA, USA).” left out
as §2, with “Bacterial cells were cultured at 37° C in appropriate culture media at pH 5.5 or pH 7.4 until collection during the mid-log phase and suspended in 10 mM sodium phosphate buffer (pH 5.5 or pH 7.4) supplemented with 10% culture medium.” left out

[3] = test system: Bacillus subtilis KCTC 1998; type: cell-based
Description: as §1, §2

[4] = test system: Listeria monocytogenes ATCC 3710; type: cell-based
Description: as §1, §2

[5] = test system: Staphylococcus epidermidis ATCC 12228; type: cell-based
Description: as §1, §2

[6] = test system: Proteus vulgaris KCTC 2433; type: cell-based
Description: as §1, with “Bacillus subtilis KCTC 1998 (LB media), Salmonella typhimurium KCTC 1926 (NB media), and Proteus vulgaris KCTC 2433 (NB media) were obtained from the Korean Collection for Type Cultures (Jeollabuk-do, Korea).” left out
as §2

[7] = test system: Salmonella typhimurium KCTC 1926; type: cell-based
Description: as §1, with “Bacillus subtilis KCTC 1998 (LB media), Salmonella typhimurium KCTC 1926 (NB media), and Proteus vulgaris KCTC 2433 (NB media) were obtained from the Korean Collection for Type Cultures (Jeollabuk-do, Korea).” left out
as §2

[8] = test system: HaCaT (human keratinocyte) cells; test: Cytotoxicity, MTT assay; type: cell-based; conditions: DMEM containing 10% FBS and 1% PS, 24 h, 37° C; for EC50: read-out: EC50 (effective concentration in HaCaT cells)
Procedure: To examine the cytotoxic effects of the peptides, HaCaT (human keratinocyte) cells were cultured in Dulbecco’s modified Eagle’s medium (DMEM) supplemented with antibiotics (100 U/ml penicillin and 100 μg/ml streptomycin) and 10% fetal calf serum at 37° C in a humidified chamber under a 5% CO2 atmosphere. Growth inhibition was evaluated using 3-(4, 5-dimethylthizol-2-yl)-2, 5-diphenyltetrazolium bromide (MTT) assays to measure cell viability. After cells were seeded into a 96-well plate at a density of 2 × 10^4/well and incubated for 24 h, twofold serial dilutions of each peptide in DMEM were added to the wells, and the cells were incubated for an additional 24 h at 37° C. Thereafter, 10 μl of MTT (5 mg/ml) was added to each well, and the plate was incubated for 4 h. The supernatants were then removed, and 50 μl of DMSO was added to each well to dissolve any remaining precipitate. Finally, the absorbance at 570 nm was measured using a microtiter reader.

[9] = pH 5.5 (I), 10 mM sodium phosphate buffer, 10% LB, 37° C, 24 h, mean of 3 experiments
[10] = pH 7.4 (II), 10 mM sodium phosphate buffer, 10% LB, 37° C, 24 h, mean of 3 experiments

**Q.** For FLRFIGSVKHGKGHLVHHIGVAL-NH2 [CSP-4], which “MIC, E. coli” value [1, 9] is on record?
**A.** Its value is 2 µM.

**Q.** What about the “MIC, E. coli” value [1, 10] of the same substance?
**A.** The value was 4 µM.

**Q.** What about the “MIC, P. aeruginosa” value [2, 9] of the same substance?
**A.** Its value is 32 µM.

**Q.** And the “MIC, P. aeruginosa” value [2, 10]?
**A.** Its value is 32 µM.

**Q.** And the “MIC, B. subtilis” value [3, 9]?
**A.** Its value is 4 µM.

**Q.** And the “MIC, B. subtilis” value [3, 10]?
**A.** The value was 4 µM.

**Q.** And the “MIC, L. monocytogenes” value [4, 9]?
**A.** Its value is 4 µM.

**Q.** What about the “MIC, L. monocytogenes” value [4, 10] of the same substance?
**A.** Its value is 4 µM.

**Q.** And the “MIC, S. epidermidis” value [5, 9]?
**A.** Its value is 4 µM.

**Q.** What about the “MIC, S. epidermidis” value [5, 10] of the same substance?
**A.** Its value is 8 µM.

**Q.** And the “MIC, P. vulgaris” value [6, 9]?
**A.** The value was 4 µM.

**Q.** What about the “MIC, P. vulgaris” value [6, 10] of the same substance?
**A.** Its value is 8 µM.

**Q.** And the “MIC, S. typhimurium” value [7, 9]?
**A.** The value was 64 µM.

**Q.** And the “MIC, S. typhimurium” value [7, 10]?
**A.** Its value is 4 µM.

**Q.** What about the “EC10 (effective concentration in HaCaT cells)” value [8] of the same substance?
**A.** Its value is > 400.

**Q.** What about the EC50 [8] of the same substance?
**A.** Its EC50 is > 400 µM.

**Q.** For FKRFIGSVKHGIGHLVHHIGVAL-NH2 [CSP-3], which “MIC, E. coli” value ([1]; ATCC 25922, 24 h, pH 5.5) is on record?
**A.** Its value is 2 µM.

**Q.** And the “MIC, E. coli” value ([1]; ATCC 25922, 24 h, pH 7.4)?
**A.** The value was 4 µM.

**Q.** What about the “MIC, P. aeruginosa” value ([2]; ATCC 15692, 24 h, pH 5.5) of the same substance?
**A.** The value was 32 µM.

**Q.** What about the “MIC, P. aeruginosa” value ([2]; ATCC 15692, 24 h, pH 7.4) of the same substance?
**A.** The value was 32 µM.

**Q.** What about the “MIC, B. subtilis” value ([3]; KCTC 1998, 24 h, pH 5.5) of the same substance?
**A.** The value was 8 µM.

**Q.** And the “MIC, B. subtilis” value ([3]; KCTC 1998, 24 h, pH 7.4)?
**A.** The value was 16 µM.

**Q.** What about the “MIC, L. monocytogenes” value ([4]; ATCC 3710, 24 h, pH 5.5) of the same substance?
**A.** The value was 16 µM.

**Q.** What about the “MIC, L. monocytogenes” value ([4]; ATCC 3710, 24 h, pH 7.4) of the same substance?
**A.** The value was 8 µM.

**Q.** What about the “MIC, S. epidermidis” value ([5]; ATCC 12228, 24 h, pH 5.5) of the same substance?
**A.** Its value is 4 µM.

**Q.** What about the “MIC, S. epidermidis” value ([5]; ATCC 12228, 24 h, pH 7.4) of the same substance?
**A.** Its value is 8 µM.

**Q.** What about the “MIC, P. vulgaris” value ([6]; KCTC 2433, 24 h, pH 5.5) of the same substance?
**A.** Its value is 4 µM.

**Q.** And the “MIC, P. vulgaris” value ([6]; KCTC 2433, 24 h, pH 7.4)?
**A.** The value was 8 µM.

**Q.** What about the “MIC, S. typhimurium” value ([7]; KCTC 1926, 24 h, pH 5.5) of the same substance?
**A.** Its value is 64 µM.

**Q.** What about the “MIC, S. typhimurium” value ([7]; KCTC 1926, 24 h, pH 7.4) of the same substance?
**A.** Its value is 4 µM.

**Q.** What about the “EC10 (effective concentration in HaCaT cells)” value [8] of the same substance?
**A.** The value was 84.

**Q.** And the EC50 [8]?
**A.** Its EC50 is 188 µM.
